Values joined by “and” are separate entries in the source; they are usually repeats but may differ in a detail not shown here. Equal values may be shown once. Inconclusive results and toxic doses are left out.
System: P388 leukemia ip, CD2F1 mice, survival T/C
Test: NCI In Vivo Anticancer Drug Screen. Data for tumor model P388 Leukemia (intraperitoneal) in CD2F1 (CDF1) mice
Details: endpoint: median survival time, higher = longer survival
Procedure, shortened: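 Mice carrying the transplanted tumor received test compound or vehicle. Survival was recorded in each group, and the value is the treated-group measurement divided by that of the vehicle-treated control group.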

[1] = dose: 200.0 mg/kg/injection, schedule: Q01DX001 (ip), vehicle: Klucel (hydroxypropylcellulose) (HPC)
[2] = dose: 12.5 mg/kg/injection, schedule: Q01DX009 (ip), vehicle: saline with Tween-80
[3] = dose: 25.0 mg/kg/injection, schedule: Q01DX009 (ip), vehicle: saline with Tween-80
[4] = dose: 50.0 mg/kg/injection, schedule: Q01DX009 (ip), vehicle: saline with Tween-80
[5] = dose: 100.0 mg/kg/injection, schedule: Q01DX009 (ip), vehicle: saline with Tween-80
[6] = dose: 200.0 mg/kg/injection, schedule: Q01DX009 (ip), vehicle: saline with Tween-80
[7] = dose: 25.0 mg/kg/injection, schedule: Q01DX005 (ip), vehicle: Klucel (hydroxypropylcellulose) (HPC)
[8] = dose: 50.0 mg/kg/injection, schedule: Q01DX005 (ip), vehicle: Klucel (hydroxypropylcellulose) (HPC)
[9] = dose: 100.0 mg/kg/injection, schedule: Q01DX005 (ip), vehicle: Klucel (hydroxypropylcellulose) (HPC)
[10] = dose: 200.0 mg/kg/injection, schedule: Q01DX005 (ip), vehicle: Klucel (hydroxypropylcellulose) (HPC)
[11] = dose: 60.0 mg/kg/injection, schedule: Q01DX005 (ip), vehicle: saline with Tween-80
[12] = dose: 120.0 mg/kg/injection, schedule: Q01DX005 (ip), vehicle: saline with Tween-80
[13] = dose: 240.0 mg/kg/injection, schedule: Q01DX005 (ip), vehicle: saline with Tween-80

O=C1C(c2ccccc2)=C(c2ccccc2)/C1=C/c1ccc(F)cc1
T/C (dose: 50.0 mg/kg/injection, schedule: Q01DX001 (ip), vehicle: Klucel (hydroxypropylcellulose) (HPC)): 112 % of control | T/C (dose: 100.0 mg/kg/injection, schedule: Q01DX001 (ip), vehicle: Klucel (hydroxypropylcellulose) (HPC)): 106 % of control | T/C [1]: 118 % of control

c1ccc(-c2ccc(-c3csnn3)cc2)cc1
T/C [2]: 100 % of control | T/C [3]: 95 % of control | T/C [4]: 91 % of control and 94 % of control | T/C [5]: 91 % of control | T/C [6]: 88 % of control

O=CC(=C\c1ccco1)/C(C=O)=C\c1ccco1
T/C (dose: 50.0 mg/kg/injection, schedule: Q01DX005 (ip), vehicle: saline with Tween-80): 97 % of control | T/C (dose: 100.0 mg/kg/injection, schedule: Q01DX005 (ip), vehicle: saline with Tween-80): 112 % of control

CCCCCCC(=O)/C=C/c1ccc(OC(=O)c2ccc(Br)cc2)cc1
T/C [2]: 104 % of control | T/C [3]: 96 % of control | T/C [4]: 96 % of control

CC(=O)C1C(=O)C(=O)N(c2ccc(Cl)cc2)C1=O (centres undefined)
T/C (dose: 50.0 mg/kg/injection, schedule: Q01DX009 (ip), vehicle: Klucel (hydroxypropylcellulose) (HPC)): 101 % of control | T/C (dose: 100.0 mg/kg/injection, schedule: Q01DX009 (ip), vehicle: Klucel (hydroxypropylcellulose) (HPC)): 96 % of control | T/C (dose: 200.0 mg/kg/injection, schedule: Q01DX009 (ip), vehicle: Klucel (hydroxypropylcellulose) (HPC)): 104 % of control

O=[N+]([O-])c1ccc2c(c1)N=Cc1ccccc1NCCNc1ccccc1C=N2
T/C (dose: 50.0 mg/kg/injection, schedule: Q01DX009 (ip), vehicle: saline): 95 % of control | T/C (dose: 100.0 mg/kg/injection, schedule: Q01DX009 (ip), vehicle: saline): 87 % of control and 90 % of control | T/C (dose: 200.0 mg/kg/injection, schedule: Q01DX009 (ip), vehicle: saline): 92 % of control and 93 % of control

CCN(CCN(C)c1ccccc1)Cc1ccccc1
T/C [4]: 105 % of control | T/C [5]: 103 % of control | T/C [6]: 105 % of control

OC1(c2ccc(CCc3ccc(C4(O)C(c5ccccc5)=C(c5ccccc5)C(c5ccccc5)=C4c4ccccc4)cc3)cc2)C(c2ccccc2)=C(c2ccccc2)C(c2ccccc2)=C1c1ccccc1
T/C (dose: 6.25 mg/kg/injection, schedule: Q01DX009 (ip), vehicle: saline with Tween-80): 100 % of control | T/C [2]: 97 % of control | T/C [3]: 93 % of control | T/C [1]: 89 % of control

Cc1ccc2nc(CC(O)(c3ccccc3)c3ccccc3)ccc2c1
T/C [4]: 110 % of control | T/C [5]: 95 % of control | T/C [6]: 94 % of control

Cc1nc2ccccc2c(=O)n1/N=C1/C(=O)Nc2ccccc21
T/C [7]: 90 % of control | T/C [8]: 90 % of control | T/C [9]: 88 % of control | T/C [10]: 103 % of control

C(CCSCCCCSCCCCCC1=NCCN1)CCC1=NCCN1
T/C [8]: 94 % of control | T/C [9]: 95 % of control | T/C [10]: 99 % of control

O=C1c2ccccc2C(=O)c2c1cc1c(c2[N+](=O)[O-])OCO1
T/C (dose: 30.0 mg/kg/injection, schedule: Q01DX005 (ip), vehicle: saline with Tween-80): 99 % of control and 107 % of control | T/C [11]: 99 % of control and 112 % of control and 113 % of control | T/C [12]: 99 % of control and 118 % of control and 120 % of control | T/C [13]: 118 % of control and 96 % of control

Nn1c(-c2nn[nH]n2)nnc1-c1nn[nH]n1
T/C [7]: 100 % of control | T/C [8]: 100 % of control | T/C [9]: 95 % of control

COC(=O)C(Cl)Cc1cncn1C (centres undefined)
T/C [4]: 94 % of control | T/C [5]: 92 % of control | T/C [6]: 93 % of control

Cc1csc(/N=C2\N/C(=N\c3nc(C)cs3)c3ccccc32)n1
T/C [4]: 88 % of control | T/C [5]: 86 % of control

CCN(CC)CCCNc1cc(OC)cc2nc3ccccc3nc12
T/C (dose: 12.5 mg/kg/injection, schedule: Q01DX005 (ip), vehicle: saline): 104 % of control | T/C (dose: 25.0 mg/kg/injection, schedule: Q01DX005 (ip), vehicle: saline): 104 % of control | T/C (dose: 50.0 mg/kg/injection, schedule: Q01DX005 (ip), vehicle: saline): 99 % of control and 112 % of control | T/C (dose: 100.0 mg/kg/injection, schedule: Q01DX005 (ip), vehicle: saline): 114 % of control

C=CCOCN1c2cc(OC)c([C@@]3(C(=O)OC)C[C@@H]4CN(CCc5c3[nH]c3ccccc53)C[C@](O)(CC)C4)cc2[C@@]23CCN4CC=C[C@@](CC)([C@@H](OC(C)=O)[C@](O)(C(=O)OC)[C@H]12)[C@H]43
T/C (dose: 1.0 mg/kg/injection, schedule: Q01DX001 (ip), vehicle: water): 109 % of control | T/C (dose: 2.0 mg/kg/injection, schedule: Q01DX001 (ip), vehicle: water): 111 % of control | T/C (dose: 4.0 mg/kg/injection, schedule: Q01DX001 (ip), vehicle: water): 115 % of control | T/C (dose: 32.0 mg/kg/injection, schedule: Q01DX001 (ip), vehicle: other): 158 % of control

CN(C)C1CCCCC1[N+](C)(C)C (centres undefined)
T/C (dose: 5.0 mg/kg/injection, schedule: Q01DX009 (ip), vehicle: saline sonified): 100 % of control | T/C (dose: 10.0 mg/kg/injection, schedule: Q01DX009 (ip), vehicle: saline sonified): 95 % of control | T/C (dose: 20.0 mg/kg/injection, schedule: Q01DX009 (ip), vehicle: saline sonified): 90 % of control

CCOC(=O)c1ccc(NC(=O)Nc2nc(C)cs2)cc1
T/C (dose: 12.5 mg/kg/injection, schedule: Q01DX009 (ip), vehicle: distilled water + Tween-80): 104 % of control and 106 % of control | T/C (dose: 25.0 mg/kg/injection, schedule: Q01DX009 (ip), vehicle: distilled water + Tween-80): 99 % of control and 107 % of control | T/C (dose: 50.0 mg/kg/injection, schedule: Q01DX009 (ip), vehicle: distilled water + Tween-80): 109 % of control and 111 % of control | T/C (dose: 100.0 mg/kg/injection, schedule: Q01DX009 (ip), vehicle: distilled water + Tween-80): 118 % of control

COc1ccc(C(CC(=O)O)CC(=O)c2ccc(N(CCCl)CCCl)cc2)cc1 (centres undefined)
T/C (dose: 100.0 mg/kg/injection, schedule: Q01DX001 (ip), vehicle: suspension in saline): 98 % of control | T/C (dose: 200.0 mg/kg/injection, schedule: Q01DX001 (ip), vehicle: suspension in saline): 99 % of control

CC1=NN(C2=NS(=O)(=O)c3ccccc3N2C)C(=O)C1
T/C [11]: 86 % of control | T/C [12]: 90 % of control | T/C [13]: 90 % of control

O=c1ncc(F)cn1C1OC(CO)C(O)C1O (centres undefined)
T/C (dose: 1.5 mg/kg/injection, schedule: Q01DX009 (ip), vehicle: Klucel (hydroxypropylcellulose) (HPC)): 106 % of control | T/C (dose: 3.0 mg/kg/injection, schedule: Q01DX009 (ip), vehicle: Klucel (hydroxypropylcellulose) (HPC)): 87 % of control | T/C (dose: 6.0 mg/kg/injection, schedule: Q01DX009 (ip), vehicle: Klucel (hydroxypropylcellulose) (HPC)): 86 % of control

COC1=CC(=O)C=C(CO)C1=O
T/C (dose: 1.56 mg/kg/injection, schedule: Q01DX009 (ip), vehicle: saline): 104 % of control | T/C (dose: 3.12 mg/kg/injection, schedule: Q01DX009 (ip), vehicle: saline): 107 % of control | T/C (dose: 6.25 mg/kg/injection, schedule: Q01DX009 (ip), vehicle: saline): 111 % of control and 94 % of control

COc1ccc(CC(=O)Cc2ccc(OC)c(OC)c2)cc1OC
T/C [4]: 101 % of control | T/C [5]: 111 % of control | T/C [6]: 95 % of control | T/C (dose: 400.0 mg/kg/injection, schedule: Q01DX009 (ip), vehicle: saline with Tween-80): 99 % of control | T/C (dose: 600.0 mg/kg/injection, schedule: Q01DX009 (ip), vehicle: saline with Tween-80): 87 % of control

Cc1ccc(C)c2c1C(=O)c1c(C)ccc(C)c1C2(O)C#Cc1ccccc1
T/C [4]: 98 % of control | T/C [5]: 89 % of control | T/C [6]: 89 % of control

O=C(Cl)CCc1cc(Cl)no1
T/C (dose: 3.13 mg/kg/injection, schedule: Q04DX003 (ip), vehicle: other): 109 % of control | T/C (dose: 6.25 mg/kg/injection, schedule: Q04DX003 (ip), vehicle: other): 97 % of control | T/C (dose: 12.5 mg/kg/injection, schedule: Q04DX003 (ip), vehicle: other): 100 % of control | T/C (dose: 25.0 mg/kg/injection, schedule: Q04DX003 (ip), vehicle: other): 103 % of control | T/C (dose: 50.0 mg/kg/injection, schedule: Q04DX003 (ip), vehicle: other): 107 % of control | T/C (dose: 100.0 mg/kg/injection, schedule: Q04DX003 (ip), vehicle: other): 107 % of control | T/C (dose: 200.0 mg/kg/injection, schedule: Q04DX003 (ip), vehicle: other): 100 % of control

From PubChem BioAssay AID330 (DTP/NCI, 2004)
